Measurements taken from ChEMBL document CHEMBL1201862, “PubChem BioAssay data set” (2004).
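Growth conditions: 96-well plates. Treatment: test compound, 48 hours, 5 concentrations. Analysis: linear interpolation between bracketing concentrations; unreached endpoints set to highest concentration. GI50 is the concentration that inhibits growth by half.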 The source made the active and inactive calls. Cut-off read from the data, not from the text of the source: active = GI50 up to about 1.1 µM and inactive = higher. Where a SMILES comes first, the peptide text is derived from it. Bridges are numbered along the chain shown (N, C = ends). The star is where a group is joined. Cbz = O=C(OCc1ccccc1)*

Columns and labels:
Test in all cases: growth of human tumour cells (NCI), 48 h
DLD-1 = system: DLD-1
DMS-114 = system: DMS-114
DMS-273 = system: DMS-273
HOP-18 = system: HOP-18
KM-20L2 = system: KM-20L2
LXFL 529 = system: LXFL 529
SNB-78 = system: SNB-78
Hs-578T = system: Hs-578T
RXF 631 = system: RXF 631

Structure (SMILES)	GI50 (DLD-1)	GI50 (DMS-114)	GI50 (DMS-273)	GI50 (KM-20L2)	GI50 (SNB-78)	GI50 (Hs-578T)	further results
COc1ccc(C2SCC(=O)N2NC(=O)c2ccncc2)cc1F (stereo unspecified)	> 100 µM (inactive)	> 100 µM (inactive)	> 100 µM (inactive)	> 100 µM (inactive)	> 100 µM (inactive)		GI50 (HOP-18): 7.29 µM (inactive); GI50 (LXFL 529): > 100 µM (inactive)
COc1cc(/C=N\O)cc(/C=N/O)c1O						17.6 µM (inactive)	
CO[C@@]12C[C@@H](CNC(=O)c3cc(Br)c[nH]3)O[C@@H]1NC(=O)N2						> 100 µM (inactive)	
Nc1c(-c2ccccc2)c2ccc([N+](=O)[O-])cc2c(=O)n1-c1cccc(C(=O)O)c1						61.2 µM (inactive)	
O=c1[nH]nc(Cc2ccccc2)n1CCCl						> 100 µM (inactive)	
CC1(C)[C@@H]2CC[C@@]1(C)CN(CCC[N+](C)(C)C)C2						> 100 µM (inactive)	
S=C(Nc1ccccc1)c1ccc(CN2CCCCC2)s1						25.3 µM (inactive)	
Nc1nc(SCc2ccc([N+](=O)[O-])cc2)nc2c1ncn2C1OC(COP(=O)(O)O)C(O)C1O (stereo unspecified)	> 100 µM (inactive)	> 100 µM (inactive)	> 100 µM (inactive)	> 100 µM (inactive)	> 100 µM (inactive)		GI50 (LXFL 529): > 100 µM (inactive)
N#Cc1c(=O)c2cc([N+](=O)[O-])ccc2n2c1[nH]c1ccccc12						3.44 µM (inactive)	
CCc1cccc(C(C)C)c1NC(=O)C(=O)C(CC(=O)Nc1ccc(Cl)c(Cl)c1)C(=O)OC (stereo unspecified)	31 µM (inactive)	> 100 µM (inactive)	49.4 µM (inactive)	26.2 µM (inactive)	> 100 µM (inactive)		GI50 (HOP-18): 99.5 µM (inactive); GI50 (RXF 631): > 100 µM (inactive)
CCCSc1ccc2[nH]c(N3C(=O)/C(=C/c4ccccc4)N=C3c3ccccc3)cc2c1						20.3 µM (inactive)	
CC(C)=CC1C(COC(=O)c2cc3c(cc2Cl)OCO3)C1(C)C (stereo unspecified)						13.1 µM (inactive)	
CCOC(=O)/C(O)=C1\C(=O)N(C)C(=O)C1c1cccc(OC)c1 (stereo unspecified)	> 100 µM (inactive)	> 100 µM (inactive)	> 100 µM (inactive)	> 100 µM (inactive)	> 100 µM (inactive)		GI50 (HOP-18): > 100 µM (inactive)
O=C1C=CC2(C=C1)C[C@H](NC(=O)C(F)(F)F)C(=O)O2	22.9 µM (inactive)	64.6 µM (inactive)		> 100 µM (inactive)	> 100 µM (inactive)		GI50 (LXFL 529): 23.7 µM (inactive)
Cc1ccc([Se][Se]c2ccc(C)cc2)cc1	17.7 µM (inactive)	11.6 µM (inactive)	16.4 µM (inactive)	38.6 µM (inactive)	16.5 µM (inactive)		GI50 (HOP-18): 6.46 µM (inactive); GI50 (LXFL 529): 4.76 µM (inactive); GI50 (RXF 631): 21.9 µM (inactive)
CCOc1ccccc1NC(=O)/C=C1\NC(=O)CS1	> 100 µM (inactive)	> 100 µM (inactive)	> 100 µM (inactive)	> 100 µM (inactive)	> 100 µM (inactive)		GI50 (HOP-18): 98.2 µM (inactive); GI50 (LXFL 529): > 100 µM (inactive)

Structure (SMILES)	GI50 (DLD-1)	GI50 (DMS-114)	GI50 (DMS-273)	GI50 (KM-20L2)	GI50 (SNB-78)	GI50 (Hs-578T)	further results
c1ccc(-c2nc3ccccc3n3c(CN4CCCCC4)nnc23)cc1						69.2 µM (inactive)	
CC(O)C(NC(=O)C(CS)NC(=O)C(CO)NC(=O)C(CCCCN)NC(=O)C(Cc1c[nH]c2ccccc12)NC(=O)C(Cc1ccc(O)cc1)NC(=O)C(CS)NC(=O)C(N)Cc1ccccc1)C(N)=O (stereo unspecified)	22.1 µM (inactive)	35.8 µM (inactive)	20.9 µM (inactive)	23.9 µM (inactive)	31.3 µM (inactive)	> 25 µM (inactive)	GI50 (HOP-18): 22.6 µM (inactive); GI50 (RXF 631): 19.1 µM (inactive)
N#Cc1c(-c2ccc([N+](=O)[O-])cc2)cc(-c2ccc(Nc3ccnc4cc(C(F)(F)F)ccc34)cc2)nc1N						24.5 µM (inactive)	
N#CC1CNC(N)NC1N (stereo unspecified)						> 100 µM (inactive)	
C[P+](c1ccccc1)(c1ccc(Cl)cc1)c1ccc(Cl)cc1						20.7 µM (inactive)	
S=C(NN=C1NCCCCN1)Nc1ccc(Cl)cc1						60 µM (inactive)	
O=c1[nH]c(Br)nc2c(N3CCCCC3)c[nH]c12	> 100 µM (inactive)	> 100 µM (inactive)	> 100 µM (inactive)	> 100 µM (inactive)	> 100 µM (inactive)		GI50 (HOP-18): > 100 µM (inactive); GI50 (LXFL 529): > 100 µM (inactive)
O=C(C/C(=N/O)C(F)(F)F)c1cccs1						> 100 µM (inactive)	
COc1ccc(/N=C2/C(=N/c3ccc(OC)cc3)N(c3ccccc3)C(=S)N2N=C=C2Sc3ccccc3N2C)cc1						> 100 µM (inactive)	
O=S(=O)(O)c1cc(/N=[N+](\[O-])c2ccc(/N=N/c3ccccc3)cc2S(=O)(=O)O)ccc1/C=C/c1ccc(/N=[N+](\[O-])c2ccc(/N=N/c3ccccc3)cc2S(=O)(=O)O)cc1S(=O)(=O)O	> 100 µM (inactive)	> 100 µM (inactive)	> 95.3 µM (inactive)		> 100 µM (inactive)		GI50 (HOP-18): > 100 µM (inactive)
CC(=O)OC[C@H]1O[C@@H](O[C@H]2[C@H](OC(C)=O)C=CO[C@@H]2COC(C)=O)C(OC(C)=O)[C@H]2OC(C)(C)O[C@H]21 (stereo partly specified)						32.1 µM (inactive)	
Cc1ccccc1N(CC(=O)O)S(=O)(=O)c1ccccc1	> 100 µM (inactive)		> 100 µM (inactive)	> 100 µM (inactive)			GI50 (HOP-18): > 100 µM (inactive); GI50 (LXFL 529): > 100 µM (inactive)
COC(=O)C1CCCCNC(=O)CCC(NC(=O)OCc2ccccc2)C(=O)N1 (stereo not drawn) (Cbz-Glu-Lys-OMe; lactam 1-2; configuration not given here)						65.9 µM (inactive)	
c1ccc2c(Cc3c[nH]c4ccccc34)c[nH]c2c1 [ARUNDINE]						41.3 µM (inactive)	
CCOS(C)(=O)=O [METHANESULFONIC ACID ETHYL ESTER]						> 100 µM (inactive)	
